Measured values: PubChem BioAssay AID330 (DTP/NCI, 2004)
Where “and” joins values, the source holds several entries; their conditions need not be identical. Identical values can stand only once. Inconclusive results and toxic doses are left out. Peptide text beside a SMILES is read from it. * marks the point of attachment. Cbz = O=C(OCc1ccccc1)*

Tested on: P388 leukemia ip, CD2F1 mice, survival T/C
Assay: NCI In Vivo Anticancer Drug Screen. Data for tumor model P388 Leukemia (intraperitoneal) in CD2F1 (CDF1) mice
Settings: endpoint: median survival time, higher = longer survival
How it was run: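 Mice carrying the transplanted tumor received test compound or vehicle. Survival was recorded in each group, and the value is the treated-group measurement divided by that of the vehicle-treated control group.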

[1] = dose: 60.0 mg/kg/injection, schedule: Q01DX005 (ip), vehicle: saline with Tween-80
[2] = dose: 120.0 mg/kg/injection, schedule: Q01DX005 (ip), vehicle: saline with Tween-80
[3] = dose: 240.0 mg/kg/injection, schedule: Q01DX005 (ip), vehicle: saline with Tween-80
[4] = dose: 50.0 mg/kg/injection, schedule: Q01DX009 (ip), vehicle: saline with Tween-80
[5] = dose: 100.0 mg/kg/injection, schedule: Q01DX009 (ip), vehicle: saline with Tween-80
[6] = dose: 50.0 mg/kg/injection, schedule: Q01DX009 (ip), vehicle: Klucel (hydroxypropylcellulose) (HPC)
[7] = dose: 100.0 mg/kg/injection, schedule: Q01DX009 (ip), vehicle: Klucel (hydroxypropylcellulose) (HPC)
[8] = dose: 50.0 mg/kg/injection, schedule: Q01DX005 (ip), vehicle: Klucel (hydroxypropylcellulose) (HPC)
[9] = dose: 100.0 mg/kg/injection, schedule: Q01DX005 (ip), vehicle: Klucel (hydroxypropylcellulose) (HPC)
[10] = dose: 200.0 mg/kg/injection, schedule: Q01DX005 (ip), vehicle: Klucel (hydroxypropylcellulose) (HPC)
[11] = dose: 50.0 mg/kg/injection, schedule: Q01DX005 (ip), vehicle: saline with Tween-80
[12] = dose: 100.0 mg/kg/injection, schedule: Q01DX005 (ip), vehicle: saline with Tween-80
[13] = dose: 200.0 mg/kg/injection, schedule: Q01DX005 (ip), vehicle: saline with Tween-80
[14] = dose: 200.0 mg/kg/injection, schedule: Q01DX009 (ip), vehicle: Klucel (hydroxypropylcellulose) (HPC)
[15] = dose: 100.0 mg/kg/injection, schedule: Q04DX003 (ip), vehicle: saline with Tween-80
[16] = dose: 200.0 mg/kg/injection, schedule: Q04DX003 (ip), vehicle: saline with Tween-80
[17] = dose: 50.0 mg/kg/injection, schedule: Q01DX009 (ip), vehicle: saline
[18] = dose: 100.0 mg/kg/injection, schedule: Q01DX009 (ip), vehicle: saline
[19] = dose: 200.0 mg/kg/injection, schedule: Q01DX009 (ip), vehicle: saline
[20] = dose: 100.0 mg/kg/injection, schedule: Q04DX002 (ip), vehicle: saline with Tween-80
[21] = dose: 200.0 mg/kg/injection, schedule: Q04DX002 (ip), vehicle: saline with Tween-80
[22] = dose: 400.0 mg/kg/injection, schedule: Q04DX002 (ip), vehicle: saline with Tween-80
[23] = dose: 25.0 mg/kg/injection, schedule: Q01DX009 (ip), vehicle: other
[24] = dose: 50.0 mg/kg/injection, schedule: Q01DX009 (ip), vehicle: other
[25] = dose: 100.0 mg/kg/injection, schedule: Q01DX009 (ip), vehicle: other
[26] = dose: 200.0 mg/kg/injection, schedule: Q01DX009 (ip), vehicle: other
[27] = dose: 400.0 mg/kg/injection, schedule: Q01DX009 (ip), vehicle: other

In the case of CN(C)c1ccc(N=C2C(c3ccccc3)=[N+]([O-])c3ccccc32)cc1, the T/C [1] is reported as 93 % of control, the T/C [2] is reported as 93 % of control and the T/C [3] is reported as 100 % of control.

COc1ccc(NC(=S)NC(=O)c2ccccc2)cc1OC was tested, and the T/C [4] was 99 % of control, the T/C [5] was 100 % of control and the T/C (dose: 200.0 mg/kg/injection, schedule: Q01DX009 (ip), vehicle: saline with Tween-80) was 107 % of control.

Cc1ccc(NCCN(C)C)c2c(=O)c3cc(O)ccc3sc12 was tested, and the T/C (dose: 1.0 mg/kg/injection, schedule: Q01DX009 (ip), vehicle: saline with Tween-80) was 103 % of control, the T/C (dose: 8.0 mg/kg/injection, schedule: Q01DX009 (ip), vehicle: Klucel (hydroxypropylcellulose) (HPC)) was 180 % of control and the T/C (dose: 16.0 mg/kg/injection, schedule: Q01DX009 (ip), vehicle: Klucel (hydroxypropylcellulose) (HPC)) was 170 % of control. For the same compound, the T/C (dose: 16.0 mg/kg/injection, schedule: Q01DX009 (ip), vehicle: saline with Tween-80) was 151 % of control, the T/C (dose: 32.0 mg/kg/injection, schedule: Q01DX009 (ip), vehicle: Klucel (hydroxypropylcellulose) (HPC)) was 191 % of control and the T/C (dose: 32.0 mg/kg/injection, schedule: Q01DX009 (ip), vehicle: saline with Tween-80) was 157 % of control. The T/C (dose: 37.0 mg/kg/injection, schedule: Q01DX009 (ip), vehicle: Klucel (hydroxypropylcellulose) (HPC)) was 97 % of control, the T/C [6] was 234 % of control and the T/C (dose: 64.0 mg/kg/injection, schedule: Q01DX009 (ip), vehicle: Klucel (hydroxypropylcellulose) (HPC)) was 265 % of control. The T/C [7] was 87 % of control.

With CCCc1nc(N)[nH]c(=O)c1I the T/C [8] was 88 % of control, the T/C [9] was 95 % of control and the T/C [10] was 106 % of control.

With CCOc1ccc2c(c1)[n+](=O)c1ccc(Cl)cc1n2[O-] the T/C [11] was 104 % of control and 111 % of control and 118 % of control, the T/C [12] was 104 % of control and 116 % of control and 118 % of control and the T/C [13] was 112 % of control.

O=C(CNNC(=S)Nc1cccc2ccccc12)c1cccc2c1Nc1ccccc1S2 was tested, and the T/C [6] was 101 % of control, the T/C [7] was 103 % of control and the T/C [14] was 101 % of control.

In the case of COC(=O)CNC(=O)C(NC(=O)C1CCCN1C(=O)OCc1ccccc1)C(C)C (stereo not drawn) (Cbz-Pro-Val-Gly-OMe; configuration not given here), the T/C [11] is reported as 105 % of control, the T/C [12] is reported as 100 % of control and the T/C [13] is reported as 100 % of control.

With C=Cc1cc(OCC)c(OC)c2ccc3ccc(OC)c(OC)c3c12 the T/C (dose: 100.0 mg/kg/injection, schedule: Q01DX001 (ip), vehicle: Klucel (hydroxypropylcellulose) (HPC)) was 95 % of control, the T/C (dose: 200.0 mg/kg/injection, schedule: Q01DX001 (ip), vehicle: Klucel (hydroxypropylcellulose) (HPC)) was 103 % of control and the T/C (dose: 400.0 mg/kg/injection, schedule: Q01DX001 (ip), vehicle: Klucel (hydroxypropylcellulose) (HPC)) was 92 % of control.

For COC(=O)C1(C)CCCC2(C)C1CCC13C=C(C(C)C)C(CC1C(=O)O)CC23 (stereo unspecified), the T/C [15] was 91 % of control and the T/C [16] was 100 % of control.

CC(N)S(=O)(=O)O (stereo unspecified) was tested, and the T/C [17] was 104 % of control, the T/C [18] was 98 % of control and the T/C [19] was 104 % of control. For the same compound, the T/C (dose: 400.0 mg/kg/injection, schedule: Q01DX009 (ip), vehicle: saline) was 88 % of control.

In the case of CC(=O)C(N=Nc1cc([N+](=O)[O-])cc(S(=O)(=O)O)c1O)C(=O)Nc1ccccc1.[Cr] (stereo unspecified), the T/C [17] is reported as 107 % of control, the T/C [18] is reported as 99 % of control and the T/C [19] is reported as 97 % of control.

CSc1ccccc1C(=O)O was tested, and the T/C [20] was 104 % of control, the T/C [21] was 101 % of control and the T/C [22] was 102 % of control.

In the case of CCCCCCCCCCOC(=O)c1ccccc1, the T/C [6] is reported as 98 % of control, the T/C [7] is reported as 93 % of control and the T/C [14] is reported as 98 % of control.

In the case of CC1=C(c2ccccc2)OS(=O)(=O)CC1N(C)C (stereo unspecified), the T/C [11] is reported as 99 % of control, the T/C [12] is reported as 99 % of control and the T/C [13] is reported as 98 % of control.

In the case of Cc1c(N=Nc2cccc(F)c2)c(-c2ccccc2)nn1C(=S)S, the T/C [11] is reported as 117 % of control, the T/C [12] is reported as 111 % of control and the T/C [13] is reported as 104 % of control.

For CCNC(=O)/N=c1/sc([N+](=O)[O-])cn1CC(=O)N1CCCCC1, the T/C (dose: 100.0 mg/kg/injection, schedule: Q04DX002 (ip), vehicle: Klucel (hydroxypropylcellulose) (HPC)) was 100 % of control, the T/C (dose: 200.0 mg/kg/injection, schedule: Q04DX002 (ip), vehicle: Klucel (hydroxypropylcellulose) (HPC)) was 99 % of control and the T/C (dose: 400.0 mg/kg/injection, schedule: Q04DX002 (ip), vehicle: Klucel (hydroxypropylcellulose) (HPC)) was 98 % of control.

For Cc1nn(C(=O)c2cccnc2)c(-c2ccccc2)c1N=Nc1ccc(S(N)(=O)=O)cc1, the T/C [20] was 90 % of control, the T/C [21] was 90 % of control and the T/C [22] was 95 % of control.

With CCC1OCCN1C(C)C (stereo unspecified) the T/C [15] was 104 % of control and the T/C [16] was 100 % of control.

In the case of COc1cccc(C(=O)O)c1C(=O)O, the T/C [23] is reported as 97 % of control, the T/C [24] is reported as 100 % of control and the T/C [25] is reported as 99 % of control. For the same compound, the T/C [26] was 106 % of control and the T/C [27] was 103 % of control.

With O=c1ccnc2ccccn12 the T/C [1] was 94 % of control, the T/C [2] was 107 % of control and the T/C [3] was 100 % of control.

With CCOc1nsc(OCC)n1 the T/C (dose: 12.5 mg/kg/injection, schedule: Q01DX009 (ip), vehicle: saline with Tween-80) was 103 % of control, the T/C (dose: 25.0 mg/kg/injection, schedule: Q01DX009 (ip), vehicle: saline with Tween-80) was 106 % of control and the T/C [4] was 106 % of control. For the same compound, the T/C [5] was 114 % of control.

With S=c1nc[nH][nH]1 the T/C (dose: 50.0 mg/kg/injection, schedule: Q01DX009 (ip), vehicle: suspension in saline) was 99 % of control, the T/C (dose: 100.0 mg/kg/injection, schedule: Q01DX009 (ip), vehicle: suspension in saline) was 105 % of control and the T/C (dose: 200.0 mg/kg/injection, schedule: Q01DX009 (ip), vehicle: suspension in saline) was 106 % of control.

In the case of O=c1ccn(C2CC(O)C(CO)O2)c(=O)[nH]1 (stereo unspecified), the T/C [8] is reported as 100 % of control, the T/C [9] is reported as 101 % of control and the T/C [10] is reported as 106 % of control.

In the case of C=CC(c1ccccc1)c1cc2c(cc1OC)OCO2 (stereo unspecified), the T/C [11] is reported as 105 % of control, the T/C [12] is reported as 96 % of control and the T/C [13] is reported as 100 % of control.

O=C(/C=C/c1ccccc1OCc1cc2ccccc2nc1Cl)c1ccccc1 was tested, and the T/C (dose: 100.0 mg/kg/injection, schedule: Q01DX001 (ip), vehicle: saline with Tween-80) was 87 % of control, the T/C (dose: 200.0 mg/kg/injection, schedule: Q01DX001 (ip), vehicle: saline with Tween-80) was 90 % of control and the T/C (dose: 400.0 mg/kg/injection, schedule: Q01DX001 (ip), vehicle: saline with Tween-80) was 90 % of control.

In the case of CC(=O)Nc1ccc2c(c1)C(=O)c1ccccc1-2, the T/C (dose: 100.0 mg/kg/injection, schedule: Q04DX003 (ip), vehicle: Klucel (hydroxypropylcellulose) (HPC)) is reported as 100 % of control, the T/C (dose: 200.0 mg/kg/injection, schedule: Q04DX003 (ip), vehicle: Klucel (hydroxypropylcellulose) (HPC)) is reported as 110 % of control and the T/C (dose: 400.0 mg/kg/injection, schedule: Q04DX003 (ip), vehicle: Klucel (hydroxypropylcellulose) (HPC)) is reported as 110 % of control.

For COC(=O)[C@@]12OC[C@]34[C@H]([C@@H](O)[C@@H]1O)[C@@]1(C)CC(=O)C(O)=C(C)[C@@H]1C[C@H]3OC(=O)[C@H](OC(=O)/C=C(\C)C(C)CO)[C@@H]24 (stereo partly specified), the T/C (dose: 0.5 mg/kg/injection, schedule: Q01DX009 (ip), vehicle: saline + alcohol) was 115 % of control.

In the case of CC(=O)N(C)N(Cc1ccc([N+](=O)[O-])cc1)C(C)=O, the T/C [23] is reported as 95 % of control, the T/C [24] is reported as 102 % of control and the T/C [25] is reported as 93 % of control. The T/C [26] was 93 % of control and the T/C [27] was 89 % of control.

In the case of ClCCN(CCCl)c1ccc(CCN2CCOCC2)cc1, the T/C (dose: 6.25 mg/kg/injection, schedule: Q01DX009 (ip), vehicle: saline) is reported as 100 % of control and 113 % of control, the T/C (dose: 12.5 mg/kg/injection, schedule: Q01DX009 (ip), vehicle: saline) is reported as 150 % of control and 154 % of control and the T/C (dose: 25.0 mg/kg/injection, schedule: Q01DX009 (ip), vehicle: saline) is reported as 150 % of control and 220 % of control.
